The target of experiment [1] is Protein Kinase C, Non-Select. The experiment can be described thus: Protein Kinase C, Non-Select. enzyme assay. Format: biochemical, rat. The following applies: historical value; read-out: ^1IC, (IC50 of reference compound). The method, then:
(§1) The peptide was further screened in vitro in a variety of enzyme and biochemical assays. Methods employed were adapted from the scientific literature to maximize reliability and reproducibility. The primary literature reference for each assay is listed in Table 11 opposite the results for each assay.
(§2) Results presented in Table 10, “Results,” are the average of duplicate determinations, unless otherwise noted.
(§3) Reference compounds were tested concurrently at 5 concentrations as an integral part of each assay to ensure the validity of the results obtained.
(§4) Enzyme assays were performed under conditions described in Table 8, “Experimental Conditions.”. The commercial suppliers and catalog numbers of substrates employed in this study are given in Table 7, “Material Sources.” The name, commercial source, and catalog numbers of concurrent reference compounds (controls) employed in this study are given in Table 9, “Reference Compound Data.” The reaction catalyzed by each enzyme is listed in Table 8, “Experimental Conditions.”
(§5) Biochemical assay results are presented in Table 10, as the percent inhibition of specific binding or activity, and unless noted are the average of duplicate tubes tested at each concentration.

The target in experiment [2] is Ca++/Calmodulin Dep. PK II. The experiment can be described thus: Ca++/Calmodulin Dep. PK II enzyme assay. Format: biochemical, rat. As to conditions: historical value; read-out: ^1IC, (IC50 of reference compound). The protocol: as §1, §2, §3, §4, §5

Molecules are shown by their SMILES.

For orientation: IC50 means the concentration that gives 50% inhibition. As for `CC1CNCCN1S(=O)(=O)c1cccc2cnccc12` (centres unmarked) [Peptide H-7, reference compound], the IC50 in experiment [1] is 35 µM.

With `CN1CCN(CCCN2c3ccccc3Sc3ccc(C(F)(F)F)cc32)CC1` [Trifluoperazine, reference compound], the IC50 in experiment [2] came to 27 µM.

For the origin of these results see US6767890B1, “Peptides having anti-cancer and anti-inflammatory activity” (priority 1998, dated 2004).
